These compounds were tested against endothelial lipase (EL) (Homo sapiens (Human), UniProt Q9Y5X9) (assay: Test for inhibition of EL (assay for EL activity)). Conditions: phospholipase-specific Bodipy phosphocholine substrate; 37° C. for 90 minutes; enzyme from conditioned medium of recombinant cell lines (CHO, HEK293).
Chain of endothelial lipase (EL) (Q9Y5X9 21-500): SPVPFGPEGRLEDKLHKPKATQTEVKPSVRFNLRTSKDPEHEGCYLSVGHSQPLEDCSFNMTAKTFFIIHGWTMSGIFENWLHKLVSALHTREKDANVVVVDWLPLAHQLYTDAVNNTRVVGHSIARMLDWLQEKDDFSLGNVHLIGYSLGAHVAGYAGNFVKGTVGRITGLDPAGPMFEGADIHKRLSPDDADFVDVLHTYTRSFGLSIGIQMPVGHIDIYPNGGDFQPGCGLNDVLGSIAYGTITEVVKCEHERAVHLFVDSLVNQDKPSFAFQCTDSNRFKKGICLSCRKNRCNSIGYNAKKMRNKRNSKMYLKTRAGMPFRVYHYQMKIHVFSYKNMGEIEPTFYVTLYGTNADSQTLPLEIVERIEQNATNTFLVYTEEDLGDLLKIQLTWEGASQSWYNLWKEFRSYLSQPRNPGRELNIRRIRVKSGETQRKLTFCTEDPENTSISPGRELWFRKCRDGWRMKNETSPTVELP
Assay type: biochemical
Excerpt: Test for inhibition of EL:
EL is released as a secretory protein by recombinant cell lines (CHO, HEK293) in high concentration into cell culture medium (conditioned medium). This was used as an enzyme solution after concentration.
For characterization of the enzymatic activity of endothelial lipase and the effect of inhibitors, the phospholipase-specific substrate 1,2-bis(4,4-difluoro-5,7-dimethyl-4-bora-3a,4a-diaza-s-indacene-3-undecanoyl)-sn-glycero-3-phosphocholine (manufacturer: Molecular Probes) was used. Hydrolysis of the A1 ester bond of this phospholipid by the enzyme releases the fluorescent dye Bodipy, which can be detected by measuring the fluorescence after separation by thin-layer chromatography on an HPTLC plate (silica gel 60, Merck) or directly in the reaction vessel. To prepare the substrate solution, 100 μg of 1,2-bis(4,4-difluoro-5,7-dimethyl-4-bora-3a,4a-diaza-s-indacene-3-undecanoyl)-sn-glycero-3-phosphocholine (manufacturer: Molecular Probes) were dissolved in 100 μl of DMSO and taken up in 2.4 mg of tripalmitin (Sigma) in 393 μl of chloroform which contained 20 mg/ml DOP—choline (1,2-dioleoyl-sn-glycero-3-phosphocholine). 39.3 μl of this lipid mixture were transferred into a fresh reaction vessel and the solvent was evaporated off. The lipid mixture was dissolved by sonicating twice in 4 ml of 200 mM TRIS-HCl, 150 mM sodium chloride, pH=7.4. The subsequent enzyme reaction was effected at 37° C. for 90 minutes. For this purpose, 20 μl of the substrate solution were incubated with 2 μl of inhibitor of appropriate concentration (dissolved in 10% DMSO; 10% DMSO solution was used as a control) and 2 μl of enzyme solution (conditioned medium). Thereafter, 4 μl of the test mixture were applied to an HPTLC plate (silica gel 60, Merck) and the fluorescent dye released was separated for detection with an eluent (diethyl ether:petroleum:acetic acid [78:22:1]). After the eluent had been evaporated off, the plate was read in a fluorescence scanner.
Work on COCCOc1ccc([C@@H](C)NC(=O)n2sc3ncccc3c2=O)cc1OC [Example 161, 3-Oxo-3H-isothiazolo[5,4-b]pyridine-2-carboxylic acid {(R)-1-[3-methoxy-4-(2-methoxy-ethoxy)-phenyl]-ethyl}-amide] yielded an IC50 of 80 nM. With Cc1cc(C)c(CNC(=O)n2sc3ncccc3c2=O)c(C)c1 [Example 29, 3-Oxo-3H-isothiazolo[5,4-b]pyridine-2-carboxylic acid 2,4,6-trimethyl-benzylamide] the IC50 was 4290 nM. COc1cc(CNC(=O)n2sc3ncccc3c2=O)cc(OC)c1OC [Example 3, 3-Oxo-3H-isothiazolo[5,4-b]pyridine-2-carboxylic acid 3,4,5-trimethoxy-benzylamide] was tested, and the IC50 was 926 nM. Compound CCOc1ccc(CNC(=O)n2sc3ncccc3c2=O)cc1OC [Example 129, 3-Oxo-3H-isothiazolo[5,4-b]pyridine-2-carboxylic acid 4-ethoxy-3-meth-oxy-benzylamide] has an IC50 of 230 nM. Work on COc1cccc(CNC(=O)n2sc3ncccc3c2=O)c1 [Example 38, 3-Oxo-3H-isothiazolo[5,4-b]pyridine-2-carboxylic acid 3-methoxy-benzyl-amide] yielded an IC50 of 182 nM. COc1ccc(OC)c(CNC(=O)n2sc3ncccc3c2=O)c1 [Example 28, 3-Oxo-3H-isothiazolo[5,4-b]pyridine-2-carboxylic acid 2,5-dimethoxy-benzylamide] gave an IC50 of 107 nM. For CSc1ccc(CNC(=O)n2sc3ncccc3c2=O)cc1 [Example 55, 3-Oxo-3H-isothiazolo[5,4-b]pyridine-2-carboxylic acid 4-methylsulfanyl-benzylamide], the IC50 was 116 nM. In the case of COCCN1CCC(CNC(=O)n2sc3ncccc3c2=O)CC1 [Example 142, 3-Oxo-3H-isothiazolo[5,4-b]pyridine-2-carboxylic acid [1-(2-methoxy-ethyl)-piperidin-4-ylmethyl]-amide], the IC50 is reported as 517 nM. CC(NC(=O)n1sc2ncccc2c1=O)c1ccc(N2CCOCC2)cc1 (stereo not drawn) [Example 134, 3-Oxo-3H-isothiazolo[5,4-b]pyridine-2-carboxylic acid [1-(4-morpholin-4-yl-phenyl)-ethyl]-amide] was tested, and the IC50 was 391 nM. Work on CC(C)Oc1ncccc1CNC(=O)n1sc2ncccc2c1=O [Example 116, 3-Oxo-3H-isothiazolo[5,4-b]pyridine-2-carboxylic acid (2-isopropoxy-pyridin-3-ylmethyl)-amide] yielded an IC50 of 1590 nM. O=C(NCc1ccccc1)n1sc2ncccc2c1=O [Example 18, 3-Oxo-3H-isothiazolo[5,4-b]pyridine-2-carboxylic acid benzylamide] was tested, and the IC50 was 69 nM. Cc1cccc(C)c1CNC(=O)n1sc2ncccc2c1=O [Example 39, 3-Oxo-3H-isothiazolo[5,4-b]pyridine-2-carboxylic acid 2,6-dimethyl-benz-ylamide] gave an IC50 of 120 nM. Work on CC(NC(=O)n1sc2ncccc2c1=O)c1ccc2c(c1)OCCO2 (stereo not drawn) [Example 5, 3-Oxo-3H-isothiazolo[5,4-b]pyridine-2-carboxylic acid [1-(2,3-dihydro-benzo[1,4]dioxin-6-yl)-ethyl]-amide] yielded an IC50 of 200 nM. In the case of COc1cc(CNC(=O)n2sc3ncccc3c2=O)ccc1OCCN(C)C [Example 115, 3-Oxo-3H-isothiazolo[5,4-b]pyridine-2-carboxylic acid 4-(2-dimethylamino-ethoxy)-3-methoxy-benzylamide], the IC50 is reported as 1380 nM. CN(C)Cc1ccc(CNC(=O)n2sc3ncccc3c2=O)cc1 [Example 130, 3-Oxo-3H-isothiazolo[5,4-b]pyridine-2-carboxylic acid 4-dimethylamino-methyl-benzylamide] showed an IC50 of 85 nM. COc1cc(C(C)NC(=O)n2sc3ncccc3c2=O)cc(OC)c1OC (stereo not drawn) [Example 4, 3-Oxo-3H-isothiazolo[5,4-b]pyridine-2-carboxylic acid [1-(3,4,5-trimeth-oxy-phenyl)-ethyl]-amide] gave an IC50 of 40 nM. Work on CC(C)C(NC(=O)n1sc2ncccc2c1=O)c1ccc2c(c1)OCCCO2 (stereo not drawn) [Example 46, 3-Oxo-3H-isothiazolo[5,4-b]pyridine-2-carboxylic acid [1-(3,4-dihydro-2H-benzo[b][1,4]dioxepin-7-yl)-2-methyl-propyl]-amide] yielded an IC50 of 28 nM. For COCCOc1ccc(CNC(=O)n2sc3ncccc3c2=O)cn1 [Example 114, 3-Oxo-3H-isothiazolo[5,4-b]pyridine-2-carboxylic acid [6-(2-methoxy-ethoxy)-pyridin-3-ylmethyl]-amide], the IC50 was 216 nM. For COc1ccc(C(C)NC(=O)n2sc3ncccc3c2=O)cc1OC (stereo not drawn) [Example 37, 3-Oxo-3H-isothiazolo[5,4-b]pyridine-2-carboxylic acid [1-(3,4-dimethoxy-phenyl)-ethyl]-amide], the IC50 was 148 nM. In the case of CSc1cccc(CNC(=O)n2sc3ncccc3c2=O)c1 [Example 59, 3-Oxo-3H-isothiazolo[5,4-b]pyridine-2-carboxylic acid 3-methylsulfanyl-benzylamide], the IC50 is reported as 264 nM. In the case of Cc1ccccc1CNC(=O)n1sc2ncccc2c1=O [Example 156, 3-Oxo-3H-isothiazolo(5,4-b]pyridine-2-carboxylic acid 2-methyl-benzyl-amide], the IC50 is reported as 1580 nM.

Source: patent publication US8933024B2, “Azolopyridin-3-one derivatives as inhibitors of lipases and phospholipases” (Sanofi, priority 2010, dated 2015)
